Data reported in ChEMBL document CHEMBL1201862, “PubChem BioAssay data set” (2004).
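In this assay, cells in 96-well plates receive the compound at five concentrations for 48 hours. Endpoints are linearly interpolated between the surrounding concentrations. At the GI50, growth is halved.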 Active and inactive are the calls of the source. Rule as the data show it: active = GI50 up to about 1.1 µM and inactive = higher.

Columns and labels:
Assay in all cases: NCI anticancer screen, dose series, 48 h
[1] = test system: HCC 2998
[2] = test system: SF-268
[3] = test system: Hs-578T
[4] = test system: SNB-19
[5] = test system: Malme-3M
[6] = test system: UO-31
[7] = test system: IGROV-1
[8] = test system: SR
[9] = test system: TK-10
[10] = test system: OVCAR-5
[11] = test system: SK-OV-3
[12] = test system: SK-MEL-5
[13] = test system: 786-0
[14] = test system: UACC-257
[15] = test system: CCRF-CEM
[16] = test system: LOX IMVI
[17] = test system: NCI/ADR-RES
[18] = test system: MDA-MB-231
[19] = test system: SF-539
[20] = test system: MCF7

SMILES | GI50 [1] | GI50 [2] | GI50 [3] | GI50 [4] | GI50 [5] | GI50 [6] | GI50 [7] | GI50 [8] | GI50 [9] | GI50 [10] | GI50 [11] | GI50 [12] | GI50 [13] | GI50 [14] | GI50 [15] | GI50 [16] | GI50 [17] | GI50 [18] | GI50 [19] | GI50 [20]
O=c1c2ccccc2nc(-c2ccccc2)n1O | > 100 µM (inactive) | > 100 µM (inactive) | > 100 µM (inactive) | > 100 µM (inactive) | > 100 µM (inactive) | 8.53 µM (inactive) | 56.8 µM (inactive) | 23.3 µM (inactive) | > 100 µM (inactive) | > 100 µM (inactive) | > 100 µM (inactive) | 70.8 µM (inactive) | > 100 µM (inactive) | > 100 µM (inactive) | 19.6 µM (inactive) | 76.6 µM (inactive) | 32.4 µM (inactive) | > 100 µM (inactive) | > 100 µM (inactive) | 95.9 µM (inactive)
Cn1c2ccccc2c2ccc3c(c21)C(=O)c1ccc2c4ccccc4n(C)c2c1C3=O | > 100 µM (inactive) | > 100 µM (inactive) | > 100 µM (inactive) | > 100 µM (inactive) | 87.5 µM (inactive) | > 100 µM (inactive) | > 100 µM (inactive) | > 100 µM (inactive) | > 100 µM (inactive) | > 100 µM (inactive) | > 100 µM (inactive) | > 100 µM (inactive) | 99.1 µM (inactive) | > 100 µM (inactive) | > 100 µM (inactive) | > 100 µM (inactive) | > 100 µM (inactive) | > 100 µM (inactive) | > 100 µM (inactive) | 97.1 µM (inactive)
CC1(C)CCC(=O)NC1CC(=O)CC1NC(=O)CCC1(C)C (stereo not given) | > 100 µM (inactive) | > 100 µM (inactive) | > 100 µM (inactive) | > 100 µM (inactive) | > 100 µM (inactive) | > 100 µM (inactive) | > 100 µM (inactive) | 7.08 µM (inactive) | > 100 µM (inactive) | > 100 µM (inactive) | > 100 µM (inactive) | > 100 µM (inactive) | > 100 µM (inactive) | > 100 µM (inactive) | > 100 µM (inactive) | > 100 µM (inactive) | > 100 µM (inactive) | > 100 µM (inactive) | > 100 µM (inactive) | > 100 µM (inactive)
O=C(O)Cc1cccnc1 | > 100 µM (inactive) | > 100 µM (inactive) | > 100 µM (inactive) | > 100 µM (inactive) | > 100 µM (inactive) | > 100 µM (inactive) | > 100 µM (inactive) | > 100 µM (inactive) | > 100 µM (inactive) | > 100 µM (inactive) | > 100 µM (inactive) | > 100 µM (inactive) | > 100 µM (inactive) | > 100 µM (inactive) | > 100 µM (inactive) | > 100 µM (inactive) | > 100 µM (inactive) | > 100 µM (inactive) | > 100 µM (inactive) | > 100 µM (inactive)
N#CC1=C(N)N(c2ccccc2)C(c2ccccc2)C1(C#N)C#N (stereo not given) | 16.4 µM (inactive) | 22.6 µM (inactive) | 30 µM (inactive) | 18.4 µM (inactive) | 17.6 µM (inactive) | 18.1 µM (inactive) | 15.7 µM (inactive) | 17.1 µM (inactive) | 16.5 µM (inactive) | 16.1 µM (inactive) | 24.9 µM (inactive) | 13.5 µM (inactive) | 17.5 µM (inactive) | 19.1 µM (inactive) | 12.8 µM (inactive) | 16.6 µM (inactive) | 20.3 µM (inactive) | 14.3 µM (inactive) | 14.7 µM (inactive) | 14.8 µM (inactive)
C=C(Cl)/C(=C\Cl)CCC(Cl)C(C)C (stereo not given) | > 100 µM (inactive) | > 100 µM (inactive) | > 100 µM (inactive) | > 100 µM (inactive) | > 100 µM (inactive) | > 100 µM (inactive) | > 100 µM (inactive) | 56.5 µM (inactive) | > 100 µM (inactive) | > 100 µM (inactive) | > 100 µM (inactive) | > 100 µM (inactive) | > 100 µM (inactive) | > 100 µM (inactive) | 41.2 µM (inactive) | 35.1 µM (inactive) | > 100 µM (inactive) | > 100 µM (inactive) | > 100 µM (inactive) | > 100 µM (inactive)
COc1ccc(C2c3cc4c(cc3OC(N3CCOCC3)C2C)OCO4)c(OC)c1 (stereo not given) | 4.17 µM (inactive) | 6.95 µM (inactive) | 1.97 µM (inactive) | 4.36 µM (inactive) | 5.11 µM (inactive) | 9.06 µM (inactive) | 7.59 µM (inactive) | 4.21 µM (inactive) | 7.78 µM (inactive) | 19.1 µM (inactive) | 4.43 µM (inactive) | 2.81 µM (inactive) | 4.63 µM (inactive) | 6.3 µM (inactive) | 3.5 µM (inactive) | 4.27 µM (inactive) | 2.71 µM (inactive) | 8.69 µM (inactive) | 3.05 µM (inactive) | 4.59 µM (inactive)
CC1(CNCc2ccccc2)CC(CCc2ccccc2)N(C(=O)c2ccc([N+](=O)[O-])cc2)C1Cc1ccc(O)cc1 (stereo not given) | 13.1 µM (inactive) | 13.4 µM (inactive) | 13.5 µM (inactive) | 14.7 µM (inactive) | 19.2 µM (inactive) | 11.3 µM (inactive) | 15 µM (inactive) | 6.75 µM (inactive) | 16.4 µM (inactive) | 17.6 µM (inactive) | 17.1 µM (inactive) | 5.35 µM (inactive) | 11.8 µM (inactive) | 12.4 µM (inactive) | 23.2 µM (inactive) | 12.6 µM (inactive) | 14.7 µM (inactive) | 10.3 µM (inactive) | 17.1 µM (inactive) | 5.24 µM (inactive)
Cc1ccc(C(=O)OC[C@H]2CC[C@@H](n3cc(N(C)C4CCCCC4)c(=O)[nH]c3=O)O2)cc1 | > 100 µM (inactive) | 28 µM (inactive) | 35.8 µM (inactive) | 19.3 µM (inactive) | 24.7 µM (inactive) | 13.9 µM (inactive) | 33.4 µM (inactive) | 95.7 µM (inactive) | 30 µM (inactive) | 26.6 µM (inactive) | 8.28 µM (inactive) | 18.8 µM (inactive) | 28.1 µM (inactive) | 32.7 µM (inactive) | 27.4 µM (inactive) | 19.1 µM (inactive) | 20 µM (inactive) | 14.9 µM (inactive) | 23.8 µM (inactive) | 22.1 µM (inactive)
CC(=O)OC(C)C1C2=C(C(=O)CC1(C)O)C(=O)c1c(ccc(-c3ccc4c(c3O)C(=O)C3=C(C4=O)C(C(C)OC(C)=O)C(C)(O)CC3=O)c1O)C2=O (stereo not given) | 10.7 µM (inactive) | 2.95 µM (inactive) | 2.11 µM (inactive) | 11.7 µM (inactive) | 0.724 µM (active) | 3.35 µM (inactive) | 9.12 µM (inactive) | 1.1 µM (active) | 2.19 µM (inactive) | 5.97 µM (inactive) | 10.8 µM (inactive) | 3.19 µM (inactive) | 1.83 µM (inactive) | 1.75 µM (inactive) | 0.308 µM (active) | 1.42 µM (inactive) | 15.8 µM (inactive) | 2.42 µM (inactive) | 1.92 µM (inactive) | 1.53 µM (inactive)
CC(C)OC(=O)[C@@H]1OC(C)(C)O[C@H]1C(=O)OC(C)C | > 100 µM (inactive) | > 100 µM (inactive) | > 100 µM (inactive) | > 100 µM (inactive) | > 100 µM (inactive) | > 100 µM (inactive) | > 100 µM (inactive) | > 100 µM (inactive) | > 100 µM (inactive) | > 100 µM (inactive) | > 100 µM (inactive) | > 100 µM (inactive) | > 100 µM (inactive) | > 100 µM (inactive) | > 100 µM (inactive) | > 100 µM (inactive) | > 100 µM (inactive) | > 100 µM (inactive) | > 100 µM (inactive) | > 100 µM (inactive)
Nc1ncnc2c1ncn2[C@@H]1C[C@H](NO)[C@@H](O)[C@H]1O | > 100 µM (inactive) | > 100 µM (inactive) | > 100 µM (inactive) | > 100 µM (inactive) | > 100 µM (inactive) | 7.33 µM (inactive) | > 100 µM (inactive) | 3.55 µM (inactive) | > 100 µM (inactive) | > 100 µM (inactive) | > 100 µM (inactive) | > 100 µM (inactive) | > 100 µM (inactive) | > 100 µM (inactive) | 22.3 µM (inactive) | 13.1 µM (inactive) | 68.5 µM (inactive) | > 100 µM (inactive) | 33.5 µM (inactive) | 49.3 µM (inactive)
O=Cc1[nH]c(=O)[nH]c(=O)c1CCl | > 100 µM (inactive) | > 59.3 µM (inactive) | > 100 µM (inactive) | > 100 µM (inactive) | > 100 µM (inactive) | > 100 µM (inactive) | > 100 µM (inactive) | 30.6 µM (inactive) | > 100 µM (inactive) | > 100 µM (inactive) | > 100 µM (inactive) | > 82 µM (inactive) | 74.8 µM (inactive) | > 100 µM (inactive) | > 52.7 µM (inactive) | 30 µM (inactive) | > 100 µM (inactive) | > 100 µM (inactive) | > 63.2 µM (inactive) | > 65.8 µM (inactive)
CCCNCC(O)CNc1ccc(NCC(O)CNCCC)c2c1C(=O)c1ccccc1C2=O (stereo not given) | 1.38 µM (inactive) | 2.03 µM (inactive) | 3.61 µM (inactive) | 1.95 µM (inactive) | 2.7 µM (inactive) | 12.6 µM (inactive) | 2.04 µM (inactive) | 2.42 µM (inactive) | 10.6 µM (inactive) | 1.61 µM (inactive) | 2.04 µM (inactive) | 2.69 µM (inactive) | 2.03 µM (inactive) | 7.85 µM (inactive) | 0.998 µM (active) | 1.44 µM (inactive) | > 75 µM (inactive) | 2.98 µM (inactive) | 1.71 µM (inactive) | 2.54 µM (inactive)
